Entries after “also recorded” stand apart in the source; their conditions may differ.
Experiments:
SW620 cells = test: Soft agar colony formation, SW620 cells (K-RAS-G12V); assay type: cell-based; conditions: K-RAS-G12V genetic background, FIG. 2b
Protocol: (§1) The specific method was as follows:
(§2) 1) 1% agar was formulated, and autoclaved. 1% agar was heated and melted in a boiling water bath before use, and then cooled in a 40° C. water bath (by holding in the bath for at least 30 minutes, the agar was cooled to a temperature of 40° C.); at the same time, 2×DMEM/FBS was placed in a warm bath. 2) A bottom agar with 0.5% agar was prepared by mixing 1% agar with 2×DMEM/FBS in a sterile tube at a volume ratio of 1:1. The mixed solution was added to a 6-well plate rapidly at 1.5 ml per well, shaked slightly, and placed at room temperature for solidification (after solidification, the bottom agar could be stored at 4° C. for 1 week. Before use, it was placed at room temperature for at least 30 minutes to return to room temperature).
(§3) 1) A mixed solution with a final concentration of 0.3% agar+1×DMEM/FBS was formulated in a sterile tube using 1% agar, 2×DMEM/FBS and sterile water at a temperature of 40° C. The prepared mixed solution was placed in a 40° C. water bath for use.
(§4) 2) The cells were trypsinized and counted. The cell density was adjusted according to the needs of the experiment. […]

K-Ras protein = target: T1, K-Ras protein (Homo sapiens, UniProt P01116, G12V); test: K-Ras protein degradation rate by Western blot in SW-620 cells; assay type: cell-based; conditions: for percent K-Ras protein degradation (single point) at 10 µM: SW-620 cells, 24 h, Western blot, relative to DMSO control, read-out: Degradation rate of compounds at 10 μM on Ras protein (%)
T1 construct: in SW620 cells, compound I-a-1 can effectively enhance the degradation of endogenous K-RAS-G12V proteins; endogenous in cells; host or cells: SW-620
Protocol: (§5) Inhibitory activity of compounds on K-RAS was evaluated by the degradation rate of protein level of administration group relative to control group (Cell Rep 2014, 7, 871-882).
as §1
1. Cell plating: SW-620 cells in logarithmic growth phase were inoculated into a 24-well plate at 2×10^4/well, and cultured in a 37° C., 5% CO2 incubator.
2. Administering drug to cells: after 24 h of culture, various drug stocks […]; the original solution in the 24-well plate was discarded, to which was added the obtained drug solution, with the DMSO group as the blank control; after the drug solution was added, the 24-well plate was transferred to the 37° C. CO2 incubator to continue the culture.
3. Detection of K-Ras protein level: after 24 h of administration and culture, the liquid in the well was discarded, the cells were routinely collected, and rinsed twice with 1×PBS, a cell lysate was added to extract the total cellular protein, and the protein concentration was determined by BCA method. 30 μg of the protein sample was taken for SDS-polyacrylamide gel electrophoretic transmembrane, the membrane was blocked sequentially, incubated with K-Ras antibody (1:1000) and internal reference antibody β-actin (1:2000) respectively overnight at 4° C., rinsed with TBST for 5 min×3 times, then incubated with the addition of the corresponding horseradish peroxidase-labeled secondary antibody (1:5000) for 1-2 h, and rinsed with TBST for 5 min×3 times. Finally, chemiluminescence image was acquired using Image Lab software.
4. Calculation of single-point K-Ras protein degradation rate: quantitative and calibration analysis of K-Ras and β-actin were conducted using Image-Lab software, and then the intracellular K-Ras degradation rate was calculated according to the following formula: single-point K-Ras protein degradation rate (%)=(control group−administration group)/control group×100%. The drug with degradation rate ≥20% was selected for soft agar experiment.

MCF-7 cells = test: Soft agar colony formation, MCF-7 cells (K-RAS-WT); assay type: cell-based; conditions: K-RAS-WT genetic background, FIG. 2a
Protocol: as §1, §2, §3, §4

K-RAS-G12V = target: T2, K-RAS-G12V (Homo sapiens, UniProt P01116, G12V); test: Degradation of overexpressed K-RAS-G12V protein in 293T cells (FIG. 1a); assay type: cell-based; conditions: 293T cells overexpressing K-RAS-G12V
T2 construct: expressed in transfected cells; host or cells: 293T
Protocol: as §5

HT-29 cells = test: Soft agar colony formation, HT-29 cells (RAF mutation); assay type: cell-based; conditions: RAF mutation genetic background, FIG. 2c
Protocol: as §1, §2, §3, §4

SW620 xenograft = test: Nude mouse SW620 xenograft tumor experiment; assay type: in vivo, nude mice; conditions: tail vein, 40 mg/kg, 80 mg/kg per day, 10 days
Protocol: as §1
1. 4-5 weeks old nude mice were subcutaneously injected with a SW620 cell suspension with a cell number controlled at about 5×10^6.
2. The tumor-bearing condition was observed after two to three days, and the mice were administered when the tumor volume was about 150 mm^3.
4. The mice were injected intravenously regularly with drug or control solvent every day, and the daily tumor volume was recorded.
5. The mice were continuously administered for 10 days, and the changes in tumor volume of the drug-administered group and the control group were observed.
6. 10 days later, eyeball blood was taken from all mice, and blood samples were kept for subsequent testing. After the mice were killed, the subcutaneously growing tumors were completely taken out, the tumor weights were recorded, and the tumors were stored in liquid nitrogen for subsequent testing.

| SMILES | colony formation on soft agar (SW620 cells) | percent K-Ras protein degradation (single point) at 10 µM (K-Ras protein) | colony formation on soft agar (MCF-7 cells) | degradation of exogenous overexpressed RAS (K-RAS-G12V) protein (K-RAS-G12V) | degradation of endogenous K-RAS-G12V protein (K-Ras protein; SW620 cells, FIG. 1b) | colony formation on soft agar (HT-29 cells) | tumor growth (tumor volume) (SW620 xenograft; FIG. 3a) | final tumor weight (SW620 xenograft; FIG. 3b) |
| --- | --- | --- | --- | --- | --- | --- | --- | --- |
| O=C(NCc1c(F)cccc1Cl)c1csc(-c2n[nH]c3ncccc23)c1 [III-a-1] | can effectively inhibit colony formation of the cells | 21% |  |  |  |  |  |  |
| O=C(NCc1c(F)cccc1Cl)c1csc(-c2n[nH]c3ccccc23)c1 [I-a-1] |  | 52% | can effectively inhibit colony formation of the cells | can effectively enhance the degradation of exogenous overexpressed RAS proteins and has good concentration dependence | can effectively enhance the degradation of endogenous K-RAS-G12V proteins and has good concentration dependence | does not inhibit colony formation of the cells | could effectively inhibit the growth of cancer cells with RAS positive genetic background in nude mice; also recorded: can effectively inhibit the increase of tumor volume and has good dose dependence | obviously smaller than that of the control group |

— patent US11292787B2, “Five-membered-fused-six-membered aza-aromatic ring compound, preparation method thereof, pharmaceutical composition and application thereof” (XIAMEN UNIVERSITY, priority 2017, dated 2022)
